Counter-ions that a name gives are not always drawn.
Molecular target: human GLUT9 (Homo sapiens (Human), UniProt Q9NRM0)
Assay: Evaluation of human GLUT9 inhibitory activity ([14C] uric acid uptake in human GLUT9 expressing HEK293T cells transduced with Uricase/Hyper)
Type: cell-based
Conditions: human GLUT9 stably expressing HEK293T cells; for IC50: final 300 μM uric acid, 6 min, read-out: humans GLUT9 inhibitory activity (IC50 value (μM)); for inhibition at 10 µM: HEK-293T, 10 μM compound, read-out: GLUT9 inhibitory rate at 10 μM of compound
Protocol: A method for measuring GLUT9 inhibitory activity using human GLUT9 expressing cells transduced with Uricase/Hyper is shown hereinafter. GLUT9 inhibitory activity ([…]) of the test compound was calculated based on the intracellular uptake amount of labeled uric acid ([^14C] uric acid) transported by GLUT9.
1. Preparation of Human GLUT9 Expression Plasmid
Human GLUT9S coding region (NM_001001290.1) was amplified by PCR method using PrimeSTAR MAX DNA Polymerase (Takara Bio). The obtained PCR product was subjected to agarose gel electrophoresis, and the desired size of PCR product was purified by QIAquick Gel Extraction Kit (QIAGEN). Next, pEBMulti-Bsd vector (Wako Pure Chemical Industries, Ltd.) was subjected to digestion using restriction enzymes SalI and EcoR V, and linked to the PCR product containing GLUT9S by In-Fusion reaction using In-Fusion HD Cloning Kit (Takara Bio). XL10-Gold Competent Cells (Agilent Technologies) were transformed in In-Fusion reaction solution, and the obtained transfectants were cultured with shaking overnight in LB medium to which Blasticidin S HCl (Thermo Fisher Scientific) was added. Human GLUT9 expression plasmid DNA was prepared from the collected transfectants using EndoFree Plasmid Kit (Takara Bio).
2. Establish of Human GLUT9 Stably Expressing Cell
HEK293T cells (American Type Culture Collection, DS Pharma Biomedical) were seeded in a 6 well plate at 1×10^6 cells/well. Next day, human GLUT9 expression plasmid was transfected by using Lipofectamine 3000 Reagent (Thermo Fisher Scientific) as follows. Lipofectamine 3000 Reagent (5 μL) was diluted with Opti-MEM (125 μL, Thermo Fisher Scientific). Separately, plasmid DNA (2.5 μg) was diluted with Opti-MEM (125 μL), and P3000 Reagent (5 μL) was added thereto. The obtained solution was mixed with the previously obtained diluted solution, and the mixture was left stand at room temperature for 5 min, and added to the cells. Next day, the transfected cells were diluted and reseeded in a 6 well plate at 4×10^5 cells/well, and drug selection was performed in the presence of 30 μg/mL of Blasticidin S HCl, and thereby, Blasticidin-resistant human GLUT9 stably expressing cell line was established. Mock cells were prepared by introducing pEBMulti-Bsd vector into HEK293T cells in a similar manner.
3. Preparation of Uricase/Hyper Expression Plasmid
Uricase/Hyper expression plasmid was prepared by linking the coding regions of Aspergillus Flavus-derived uricase gene and pHyPer-Cyto vector (Evrogen) HyPer gene to the pEBMulti-Hyg vector (Wako Pure Chemical Industries, Ltd.) and then introducing it. The preparation method was performed by reference to Gout and Nucleic Acid Metabolism 2013, 37(2), 93-101, and seven repeated linker sequence of glycine-glycine-glycine-serine was prepared herein.
4. Preparation of Human GLUT9-Uricase/Hyper Coexpressing Cell
Human GLUT9 stably expressing cells were seeded at 3.6×10^7 cells per 225 cm^2 flask. Next day, Uricase/Hyper expression plasmid was transfected by using Lipofectamine 3000 Reagent as follows. Lipofectamine 3000 Reagent (40 μL) was diluted with Opti-MEM (750 μL). Separately, plasmid DNA (20 μg) was diluted with Opti-MEM (750 μL), and P3000 Reagent (40 μL) was added thereto. The obtained solution was mixed with the previously obtained diluted solution, and the mixture was left stand at room temperature for 5 min, and added to the cells. Next day, transfected cells were collected to prepare human GLUT9-Uricase/Hyper coexpressing cells.
5. Evaluation of GLUT9 Inhibitory Activity
Uricase/Hyper transiently-transfected human GLUT9 stably expressing cells or mock cells (blank) were seeded in a 96 well plate (Corning) at 1.6×10^5 cells/well, and cultured overnight at 37° C., 5% CO2. D-MEM/high glucose (Wako Pure Chemical Industries, Ltd.) containing 10% Fetal Bovine Serum (Lifetechnology) and 100 units/ml penicillin/100 μg/ml streptomycin (GIBCO) was used as a medium.

Sequence of human GLUT9 (Q9NRM0 other isoform, or with tags, fused parts or gaps): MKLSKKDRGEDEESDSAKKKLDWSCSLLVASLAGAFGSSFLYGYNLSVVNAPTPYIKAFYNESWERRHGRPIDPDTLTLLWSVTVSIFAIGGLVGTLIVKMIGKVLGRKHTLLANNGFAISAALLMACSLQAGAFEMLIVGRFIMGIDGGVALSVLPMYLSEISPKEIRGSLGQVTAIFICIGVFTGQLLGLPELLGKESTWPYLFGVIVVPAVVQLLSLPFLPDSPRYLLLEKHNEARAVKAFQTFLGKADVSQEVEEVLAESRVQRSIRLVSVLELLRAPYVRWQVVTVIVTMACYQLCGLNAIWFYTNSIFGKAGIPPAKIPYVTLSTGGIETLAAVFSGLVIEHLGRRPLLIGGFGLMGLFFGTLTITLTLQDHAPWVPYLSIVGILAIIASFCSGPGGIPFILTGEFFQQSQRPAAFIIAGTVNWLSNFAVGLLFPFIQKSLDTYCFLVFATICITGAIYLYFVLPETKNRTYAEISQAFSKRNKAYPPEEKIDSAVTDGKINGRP

SMILES | IC50 [µM] | inhibition at 10 µM [%]
CCCCc1cnc(-c2ccc(OC)cc2)c(-c2ccc(C(=O)O)c(C)c2)c1 [Example 114] | 0.0604 | 
COc1ccc(-c2ncc(C3CCOCC3)cc2-c2ccc(C(=O)O)cc2)cc1 [Example 60] |  | 45
COCCCCc1cnc(-c2cc(F)c(OC)c(F)c2)c(-c2ccc(C(=O)O)c(C)c2)c1 [Example 130] | 0.0521 | 
CCCCc1cnc(-c2ccc(OC)cc2)c(-c2cc(C)c(C(=O)O)c(C)c2)n1 [Example 110] | 0.265 | 
COCCCCc1cnc(-c2cc(F)c(OC)c(F)c2)c(-c2ccc(CCC(=O)O)cc2)n1 [Example 148] | 0.0807 | 
COCCCCc1cnc(-c2cc(F)c(OC)c(F)c2)c(-c2ccc(C(=O)O)cc2)c1 [Example 129] | 0.0569 | 
CCCCc1cnc(-c2ccc(OC)cc2)c(-c2ccc(C(=O)O)c(CC)c2)n1 [Example 111] | 0.0826 | 
COCCCc1cnc(-c2ccc(OC)cc2)c(-c2ccc(C(=O)O)c(Cl)c2)c1 [Example 120] | 0.539 | 
COc1c(F)cc(-c2ncc(CC(C)C)cc2-c2ccc(C(=O)O)cc2)cc1F [Example 99] | 0.0514 | 
CCCc1cnc(-c2cc(F)c(OC)c(F)c2)c(-c2ccc(C(=O)O)cc2)n1 [Example 66] | 0.077 | 
CCCCc1cnc(-c2ccc(C3CC3)cc2)c(-c2ccc(C(=O)O)cc2)n1 [Example 34] | 0.124 | 
COc1c(F)cc(-c2ncc(CC(C)C)nc2-c2ccc(C(=O)O)c(Cl)c2)cc1F [Example 151] | 0.106 | 
COCCCCc1cnc(-c2ccc(OC)cc2)c(-c2ccc(C(=O)O)cc2)n1 [Example 20] | 0.12 | 
CCOCCc1cnc(-c2cc(F)c(OC)c(F)c2)c(-c2ccc(CCC(=O)O)cc2)n1 [Example 134] | 0.525 | 
COCCCCc1cnc(-c2ccc(OC)cc2)c(-c2ccc(C(=O)O)c(Cl)c2)c1 [Example 125] | 0.229 | 
CCCCc1cnc(-c2ccc(OC)cc2)c(-c2ccc(C(C)(C)C(=O)O)cc2)n1 [Example 48] | 7.12 | 
COc1c(F)cc(-c2ncc(CC(C)C)nc2-c2ccc(C(=O)O)cc2)cc1F [Example 98] | 0.0605 | 
CCCCNC(=O)c1cnc(-c2ccc(OC)cc2)c(-c2ccc(C(=O)O)cc2)c1 [Example 76, 4-(5-(butylcarbamoyl)-2-(4-methoxyphenyl)pyridin-3-yl)benzoic Acid Hydrochloride] |  | 10
COc1c(F)cc(-c2ncc(CC(C)C)nc2-c2ccc(C(=O)O)c(C)c2)cc1F [Example 149] | 0.0574 | 
CCOCCCc1cnc(-c2ccc(OC)cc2)c(-c2ccc(C(=O)O)cc2)c1 [Example 77] | 0.0585 | 
CCCCc1cnc(-c2ccc(OC)cc2)c(-c2ccc(C(=O)O)cc2)c1C [Example 39] | 1.45 | 
COc1ccc(-c2ncc(C3CCCC3)cc2-c2ccc(C(=O)O)cc2)cc1 [Example 59] | 0.132 | 
COCCCCc1cnc(-c2cc(F)c(OC)c(F)c2)c(-c2ccc(C(=O)O)c(C)c2)n1 [Example 135] | 0.0613 | 
CCCOCc1cnc(-c2cc(F)c(OC)c(F)c2)c(-c2ccc(C(=O)O)c(C)c2)c1 [Example 147] | 0.0868 | 

Continued, values first:

IC50 [µM] | inhibition at 10 µM [%] | SMILES
0.181 |  | CCCCc1cnc(-c2ccc(OC)cc2)c(-c2ccc(C(=O)O)c(Cl)c2)n1 [Example 92]
0.344 |  | COc1ccc(-c2ncc(C(C)C)cc2-c2ccc(C(=O)O)cc2)cc1 [Example 57]
0.543 |  | CCOCCc1cnc(-c2cc(F)c(OC)c(F)c2)c(-c2ccc(C(=O)O)cc2)n1 [Example 117]
0.0713 |  | CCOCCc1cnc(-c2cc(F)c(OC)c(F)c2)c(-c2ccc(C(=O)O)cc2)c1 [Example 140]
0.0662 |  | CCCCc1cnc(-c2ccc(OC)cc2)c(-c2ccc(C(=O)O)c(C)c2)n1 [Example 83]
3.99 |  | CCCCc1cnc(-c2ccc(C(C)(C)C)cc2)c(-c2ccc(C(=O)O)cc2)n1 [Example 55]
0.0942 |  | CCCCc1cnc(-c2ccc(OC)cc2)c(-c2ccc(C(=O)O)cc2)c1 [Example 18]
0.865 |  | CCCCc1cnc(-c2ccc(OC)cc2)c(-c2ccc(CC(=O)O)cc2)n1 [Example 38]
1.65 |  | COc1ccc(-c2ncc(CCCC3(O)CCC3)cc2-c2ccc(C(=O)O)cc2)cc1 [Example 44]
0.0627 |  | COCCCc1cnc(-c2cc(F)c(OC)c(F)c2)c(-c2ccc(C(=O)O)cc2)c1 [Example 107]
1 |  | COCCCc1cnc(-c2ccc(OC)c(F)c2)c(-c2ccc(C(=O)O)c(F)c2)n1 [Example 113]
0.127 |  | COc1ccc(-c2ncc(CCC(F)(F)F)cc2-c2ccc(C(=O)O)cc2)cc1 [Example 62]
 | 5 | CCCCc1cnc(-c2ccc(OC)c(C(=O)O)c2)c(-c2ccc(C(=O)O)cc2)n1 [Example 15]
0.0914 |  | CCCCc1cnc(-c2ccc(OC)cc2)c(-c2ccc(C(=O)O)c(F)c2)n1 [Example 14]
1.78 |  | CCCCc1cnc(-c2ccc(F)cc2)c(-c2ccc(C(=O)O)cc2)n1 [Example 10]
0.0519 |  | COCCCCc1cnc(-c2cc(F)c(OC)c(F)c2)c(-c2ccc(CCC(=O)O)cc2)c1 [Example 132]
0.0795 |  | COCCCc1cnc(-c2cc(F)c(OC)c(F)c2)c(-c2ccc(CCC(=O)O)cc2)n1 [Example 97]
0.946 |  | CCCCc1cnc(-c2ccc(OC)cc2C)c(-c2ccc(C(=O)O)cc2)n1 [Example 2]

IC50 [µM] | inhibition at 10 µM [%] | SMILES
1.67 |  | CCCCc1cnc(-c2ccc(OC)cc2)c(-c2ccc(OCC(=O)O)cc2)n1 [Example 70]
0.0684 |  | COCCCc1cnc(-c2ccc(OC)cc2)c(-c2ccc(C(=O)O)c(C)c2)c1 [Example 116, 4-(2-(4-methoxyphenyl)-5-(3-methoxypropyl)pyridin-3-yl)-2-methylbenzoic Acid]
0.133 |  | CCCCc1cnc(-c2ccc3c(c2)OCCO3)c(-c2ccc(C(=O)O)cc2)n1 [Example 50]
0.104 |  | CCOCCc1cnc(-c2ccc(OC)cc2)c(-c2ccc(C(=O)O)cc2)c1 [Example 73]
0.059 |  | CCCCc1cnc(-c2cc(F)c(OC)c(F)c2)c(-c2ccc(C(=O)O)c(C)c2)n1 [Example 152]
4.25 |  | CCCCc1cnc(-c2ccc(C(F)(F)F)c(C(F)(F)F)c2)c(-c2ccc(C(=O)O)cc2)n1 [Example 28]
6.5 |  | COc1ccc(-c2ncc(CCC3CCCCC3)cc2-c2ccc(C(=O)O)cc2)cc1 [Example 42]
5.06 |  | COc1ccc(-c2ncc3c(c2-c2ccc(C(=O)O)cc2)CCCC3)cc1 [Example 12]
0.0888 |  | CCCCc1cnc(-c2ccc3c(c2)CCO3)c(-c2ccc(C(=O)O)cc2)n1 [Example 32]
0.102 |  | CCCCc1cnc(-c2cc(F)c(OC)c(F)c2)c(-c2ccc(CCC(=O)O)cc2)n1 [Example 153]
0.0688 |  | COCCCCc1cnc(-c2ccc(OC)cc2)c(-c2ccc(CCC(=O)O)cc2)c1 [Example 127]
0.526 |  | CCCCc1cnc(-c2ccc(OC)cc2)c(-c2ccc(CC(=O)O)c(F)c2)n1 [Example 72]
 | 47 | COc1ccc(-c2ncc(CC3CCCCC3)cc2-c2ccc(C(=O)O)cc2)cc1 [Example 47]
7.13 |  | COc1ccc(-c2ncc(CCCOCCO)cc2-c2ccc(C(=O)O)cc2)cc1 [Example 43]
0.0659 |  | CCCCc1cnc(-c2ccc(OC)c(F)c2)c(-c2ccc(C(=O)O)cc2)n1 [Example 11]
0.201 |  | CCCCc1cnc(-c2ccc3c(c2)CCCO3)c(-c2ccc(C(=O)O)cc2)n1 [Example 49]
0.167 |  | CCOCCc1cnc(-c2ccc(OC)cc2)c(-c2ccc(CCC(=O)O)cc2)c1 [Example 139]

Reference: US10752596B2, “Nitrogen-containing heteroaryl compound and pharmaceutical use thereof” (JAPAN TOBACCO INC., priority 2017, dated 2020)
